Values joined by “and” are separate entries in the source; they are usually repeats but may differ in a detail not shown here. Identical values can stand only once. Inconclusive results and toxic doses are left out.

For the test, the system named is P388 leukemia ip, CD2F1 mice, survival T/C. The test is described as follows: NCI In Vivo Anticancer Drug Screen. Data for tumor model P388 Leukemia (intraperitoneal) in CD2F1 (CDF1) mice. Particulars: endpoint: median survival time, higher = longer survival. The method, boiled down: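 Mice carrying the transplanted tumor received test compound or vehicle. Survival was recorded in each group, and the value is the treated-group measurement divided by that of the vehicle-treated control group.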

Where [1] appears, read: dose: 60.0 mg/kg/injection, schedule: Q01DX005 (ip), vehicle: saline with Tween-80.
[2] abbreviates: dose: 120.0 mg/kg/injection, schedule: Q01DX005 (ip), vehicle: saline with Tween-80.
The mark [3] stands for this setting: dose: 240.0 mg/kg/injection, schedule: Q01DX005 (ip), vehicle: saline with Tween-80.
Where [4] appears, read: dose: 12.5 mg/kg/injection, schedule: Q04DX003 (ip), vehicle: saline.

For `[I][Hg][CH]1CCC2CCCC1O2` (centres undefined), the T/C reads like this: (dose: 12.5 mg/kg/injection, schedule: Q01DX009 (ip), vehicle: Klucel (hydroxypropylcellulose) (HPC)) 105 % of control; (dose: 25.0 mg/kg/injection, schedule: Q01DX009 (ip), vehicle: Klucel (hydroxypropylcellulose) (HPC)) 102 % of control.

Consider `O=C(Nc1nc2ccc([N+](=O)[O-])cc2s1)C(F)(F)C(F)(F)F`, for which the T/C is 112 % of control (dose: 6.25 mg/kg/injection, schedule: Q01DX009 (ip), vehicle: saline); 112 % of control (dose: 12.5 mg/kg/injection, schedule: Q01DX009 (ip), vehicle: saline); 106 % of control (dose: 25.0 mg/kg/injection, schedule: Q01DX009 (ip), vehicle: saline).

Turning to `CS(=O)(=O)O/C=C1\C(=O)OC2CCCCC12` (centres undefined), the T/C runs as follows: (dose: 18.8 mg/kg/injection, schedule: Q01DX009 (ip), vehicle: distilled water + Tween-80) 108 % of control; (dose: 37.5 mg/kg/injection, schedule: Q01DX009 (ip), vehicle: distilled water + Tween-80) 107 % of control and 116 % of control; (dose: 75.0 mg/kg/injection, schedule: Q01DX009 (ip), vehicle: distilled water + Tween-80) 116 % of control and 118 % of control; (dose: 150.0 mg/kg/injection, schedule: Q01DX009 (ip), vehicle: distilled water + Tween-80) 120 % of control.

Regarding `CS(=O)(=O)CS(=O)(=O)OCCF`, the T/C is, setting by setting: (dose: 12.5 mg/kg/injection, schedule: Q01DX005 (ip), vehicle: saline) 188 % of control; (dose: 25.0 mg/kg/injection, schedule: Q01DX005 (ip), vehicle: saline) 258 % of control and 285 % of control; (dose: 50.0 mg/kg/injection, schedule: Q01DX005 (ip), vehicle: saline) 285 % of control.

As for `O=C(CCCC(=O)Nc1cccc([N+](=O)[O-])c1)CC(=O)c1ccc([N+](=O)[O-])cc1`, the T/C by setting is: under setting [1], 100 % of control; under setting [2], 102 % of control; under setting [3], 103 % of control.

For the compound `Cc1ccc(N2N=NC3C4CCC(C)(C4(C)C)C32O)cc1` (centres undefined), the T/C (dose: 50.0 mg/kg/injection, schedule: Q04DX002 (ip), vehicle: other) is 92 % of control; the T/C (dose: 100.0 mg/kg/injection, schedule: Q04DX002 (ip), vehicle: other) is 98 % of control; the T/C (dose: 200.0 mg/kg/injection, schedule: Q04DX002 (ip), vehicle: other) was 93 % of control.

On to `O=C(/C=C/c1cn(C(=O)CCCl)c2ccccc12)c1cccc([N+](=O)[O-])c1`, for which the T/C reads like this: under setting [1], 99 % of control; under setting [2], 96 % of control; under setting [3], 89 % of control.

With `O=C(O)C1CCCN1C(=O)c1cccc(Cl)c1` (centres undefined), the T/C runs as follows: (dose: 50.0 mg/kg/injection, schedule: Q01DX005 (ip), vehicle: saline with Tween-80) 94 % of control; (dose: 100.0 mg/kg/injection, schedule: Q01DX005 (ip), vehicle: saline with Tween-80) 96 % of control; (dose: 200.0 mg/kg/injection, schedule: Q01DX005 (ip), vehicle: saline with Tween-80) 87 % of control.

On to `Cc1cc(Cl)c2ccc(N(C)C)cc2n1`, for which the T/C (dose: 50.0 mg/kg/injection, schedule: Q01DX009 (ip), vehicle: saline with Tween-80) is 119 % of control; the T/C (dose: 100.0 mg/kg/injection, schedule: Q01DX009 (ip), vehicle: saline with Tween-80) is 112 % of control; the T/C (dose: 200.0 mg/kg/injection, schedule: Q01DX009 (ip), vehicle: saline with Tween-80) is 110 % of control.

For `C=CC1CCCCC1C=C` (centres undefined), the T/C is, setting by setting: under setting [4], 100 % of control; (dose: 25.0 mg/kg/injection, schedule: Q04DX003 (ip), vehicle: saline) 113 % of control; (dose: 50.0 mg/kg/injection, schedule: Q04DX003 (ip), vehicle: saline) 100 % of control.

Turning to `CN(C)c1c(Cl)c(=O)oc2c1ccc1nc(-c3ccccc3)ncc12`, the T/C under setting [1] is 97 % of control and the T/C under setting [2] is 88 % of control.

On to `CN1C(=O)N(c2cc(Cl)cc(Cl)c2)C(=N)C1=S`, for which the T/C is 98 % of control (dose: 60.0 mg/kg/injection, schedule: Q01DX005 (ip), vehicle: Klucel + Tween-80) and 94 % of control (dose: 120.0 mg/kg/injection, schedule: Q01DX005 (ip), vehicle: Klucel + Tween-80).

Consider `C[CH2][Sn]1([CH2]C)[O]C2C(OC)OC3COC(c4ccccc4)OC3C2[O]1` (centres undefined), for which the T/C by setting is: (dose: 1.56 mg/kg/injection, schedule: Q04DX003 (ip), vehicle: saline) 101 % of control and 107 % of control; (dose: 3.12 mg/kg/injection, schedule: Q04DX003 (ip), vehicle: saline) 104 % of control and 116 % of control; (dose: 6.25 mg/kg/injection, schedule: Q04DX003 (ip), vehicle: saline) 101 % of control and 116 % of control and 117 % of control; under setting [4], 104 % of control and 116 % of control.

For `c1ccc(CN2Cc3c(n(-c4ccccc4)c4ccccc34)C2)cc1`, the T/C is 105 % of control (dose: 100.0 mg/kg/injection, schedule: Q04DX003 (ip), vehicle: Klucel (hydroxypropylcellulose) (HPC)); 112 % of control (dose: 200.0 mg/kg/injection, schedule: Q04DX003 (ip), vehicle: Klucel (hydroxypropylcellulose) (HPC)); 114 % of control (dose: 400.0 mg/kg/injection, schedule: Q04DX003 (ip), vehicle: Klucel (hydroxypropylcellulose) (HPC)).

For `CCN(CC)OC(=O)/C=C/c1ccccc1`, the T/C was 95 % of control (dose: 30.0 mg/kg/injection, schedule: Q01DX005 (ip), vehicle: saline with Tween-80); 98 % of control and 93 % of control under setting [1]; 86 % of control under setting [2].

Values taken from PubChem BioAssay AID330 (DTP/NCI, 2004).
